According to patent US5627017A, “Low melting point ionizable epoxy scavengers for residual magenta couplers” (Eastman Kodak Company, priority 1995, dated 1997):

Assays:
[1] = logP (logarithm of the octanol/water partition coefficient); type: physicochemical
From the text: Hydrophobic photographic additives are conveniently incorporated in a hydrophilic colloid layer of a photographic element by dissolving the hydrophobic additive in an organic solvent and then dispersing the organic solution in an aqueous solution to form a homogenized dispersion. […] The low hydrophobicity is essential to achieve efficient post-process migration of these compounds from the adjacent non-imaging layers into the magenta imaging layer. The combination of low hydrophobicity and high melting point makes it difficult to prepare stable dispersions of these compounds by homogenization in an aqueous solution even if relatively large amounts of water-immiscible organic solvent is used to dissolve the compounds. The exemplified compounds are accordingly dispersed in the examples of U.S. Ser. No. 08/255,512 by a solid particle dispersion process. In this method size reduction of the epoxy compound is achieved by attrition with media such as zirconia beads instead of by shearing action on a liquid solution. The solid particle dispersion process is relatively inefficient compared to homogenization and often requires several days of grinding in order to achieve the desired level of size reduction.

[2] = Dispersion stability in constant temperature bath at 45 °C; type: physicochemical; details: 3.0 g epoxide with 1.0 g tri(2-ethylhexyl) phosphate in gelatin/Alkanol XC, E1 disintegrated with significant settling, SI-4 no evidence of settling or macroscopic coagulation
Protocol: 3.0 grams of E1 was combined with 1.0 gram of the water-immiscible organic solvent tri(2-ethylhexyl) phosphate. The mixture was heated until the oil phase was homogeneous. 26.0 grams of a 12% w/w solution of Type IV gelatin in water was combined with 43.8 grams of water and 4.0 grams of Alkanol XC to constitute the aqueous phase. The aqueous phase was maintained at 70° C. The oil phase was combined with the aqueous phase while stirring. The mixture was then passed twice through the microfluidizer at a pressure of 10,000 psi to obtain the dispersion.
Both dispersions were placed in a constant temperature bath set at 45° C.

Structure (SMILES) | logP [1] | time at which dispersion disintegrated / showed settling or macroscopic coagulation [2] [h]
O=C(CCCCCCCCC1CO1)Oc1ccc(NS(=O)(=O)c2ccccc2)cc1 (stereo not shown) [SI-4] | 4.3 | > 12
O=C(CCCCCCCCC1CO1)Oc1ccc(NS(=O)(=O)c2ccc(F)cc2F)cc1 (stereo not shown) [E1] | 4.5 | 6
